This note sets out measurements from PubChem BioAssay AID179 (DTP/NCI, 2004).

pEC50, pIC50: −log10 of the molar value. Activity calls are given as the source filed them.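 The calls were made as follows: active = compounds giving half or more protection of infected cells from virus-caused growth loss, again on retest; inactive = the rest.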 Where a SMILES comes first, the peptide text is derived from it. The star is where a group is joined. Cbz = O=C(OCc1ccccc1)*; NHNH2 = NN*

This test concerns CEM cells HIV-1 protection, formazan growth assay. The experiment in a line: NCI AIDS Antiviral Assay. Conditions: for pIC50: measured here: growth of uninfected CEM cells. The method in brief:
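Soluble formazan readout of cell growth; CEM cells ± HIV-1; 5 drug concs. ≥50% protection → retest; ≥50% again = moderately active; reproducible 100% = confirmed active.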

A word on the pEC50: it is the EC50 on a negative log10 scale, so that one unit is a factor of ten. As a reminder, the pIC50 is the IC50 on a negative log10 scale, so that one unit is a factor of ten. In the case of `COC(=O)Cn1c(=O)oc2nc(-c3ccccc3)cc(C(F)(F)F)c21`, the pEC50 was under 3.70 and the pIC50 was 3.89. As to `CC(C)CC(NC(=O)C(CO)NC(=O)OCc1ccccc1)C(=O)NC(Cc1ccc(O)cc1)C(=O)NN` (stereo not drawn) (Cbz-Ser-Leu-Tyr-NHNH2; configuration not given here), the outcome was inactive. Take `COc1ccc(/C=C/C(=O)CCN2CCN(CCC(=O)/C=C/c3ccc(OC)cc3)CC2)cc1`: the pEC50 was under 3.82 and the negative-log IC50 (pIC50) was 5.80. `CC(C)C1SCc2nc3ccccc3n21` (stereo unspecified): the pEC50 was under 3.70 and the negative-log IC50 (pIC50) was 4.02. For `CC(C)(Oc1ccc(/C=C/C(=O)c2ccc(Cl)cc2)cc1)C(=O)Nc1c(Cl)cccc1Cl` the same measures were under 4.83 and under 4.83. The matching figures for `CC1CNC2(c3ccccc3)CSC=C(c3ccccc3)N12` (stereo unspecified): under 3.70 and 3.93. For the compound `CC1CN=C(N(C)C(=O)Nc2ccc(Cl)cc2)S1` (stereo unspecified), the result was inactive. With `C=C1[C@H](OC(=O)C(C)C)[C@]23CC4(O)[C@@H]5[C@@]6(C)CCC[C@]57C([C@@H]2C[C@@]1(O)[C@H](O)[C@@H]73)N4C6`, the pEC50 was 4.21 and the pIC50 was under 3.70. For `OC1c2ccccc2CC12Cc1ccccc1C2` (stereo unspecified) the same measures were under 3.70 and 3.84. For `CCn1c(N)c(N=O)c(=O)[nH]c1=O` the same measures were under 3.70 and under 3.70.

Consider `CCSC(CCCC1OCC2OC(n3cc(C)c(=O)[nH]c3=O)CC2N1O)SCC` (stereo unspecified), for which the pEC50 was under 3.70 and the negative logarithm of the IC50 (pIC50) is 3.87. For the compound `COC(=O)C1Cc2cc3c(cc2C1=O)CCCC3` (stereo unspecified), the pEC50 was under 3.00 and the pIC50 is 4.18. For `COc1cc(C(=O)OC2CC(C)=CC[C@@]3(C)CC[C@](O)(C(C)C)C23)ccc1O` (stereo partly specified) the same measures were under 3.70 and 5.07. Regarding `COc1ccc2c(O)c(Oc3ccc(Cl)cc3)c(=O)oc2c1`, the result was inactive. Regarding `CCOC(=O)c1cc(-c2ccccc2)c(OC)c(=O)nc1-c1ccccc1`, the pEC50 was under 4.56 and the negative-log IC50 (pIC50) was under 4.56. On to `NC(N)=Nc1ccc(N)cc1`, for which the result was inactive. On to `CCCCCCCCCCCCNC1(C)CNCCCNCCNCCCNC1`, for which the pEC50 is under 3.60 and the pIC50 is 5.85. The matching figures for `CSc1c(C#N)c(N)n(-c2ccc(C)cc2)c(=O)c1C#N`: under 4.08 and 4.13. Regarding `Cc1ccc(N=Nc2c(C)nn(-c3ccccc3)c2-c2ccccc2)c(Br)c1`, the result was inactive.

`Cc1cnc2sn(-c3ccc(Oc4ccccc4)cc3)c(=O)c2c1`: the pEC50 is under 3.70 and the negative logarithm of the IC50 (pIC50) is 5.00. For `CC(C)[C@](O)(C(=O)OCC1CCN2CC[C@@H](O)C12)[C@H](C)O` (stereo partly specified) the same measures were under 3.70 and under 3.70. On to `CC1=C(C)C(=O)c2c(cc3ccc4ccccc4n23)C1=O`, for which the outcome was inactive. Regarding `CN/N=C(\C(=O)Nc1ccc([N+](=O)[O-])cc1[N+](=O)[O-])C1NC(=O)NC1=O` (stereo unspecified), the pEC50 is under 4.18 and the negative-log IC50 (pIC50) is under 4.18. `COc1cc(C)c(Br)c2ccc(Br)c(O)c12`: the pEC50 was under 3.70 and the negative-log IC50 (pIC50) is under 3.70. Turning to `O=C1CCC2(CC1)SCCCS2`, the pEC50 is under 3.47 and the pIC50 was under 3.47.

Regarding `CCOC(=O)NC(=O)c1cn(CCN2CCN(C(=O)CNC(=O)CNC(=O)Cn3cc(C(=O)NC(=O)OCC)c(=O)[nH]c3=O)CC2)c(=O)[nH]c1=O`, the outcome was inactive. With `C=CC/C(C(=O)OC)=C(/C(=O)OC)N(CCC)CCC`, the pEC50 was under 3.70 and the negative-log IC50 (pIC50) is 4.47. As to `O=C(CCCC[n+]1ccccc1)Sc1ccccc1C(=O)Nc1ccc(S(=O)(=O)Nc2nccs2)cc1`, the pEC50 was 4.87 and the pIC50 is 4.04. The matching figures for `CN=C(NNc1ccc([N+](=O)[O-])cc1)P(=O)(OC(C)C)OC(C)C`: under 5.14 and under 5.14.
